Among the data in US8063221B2, “Aminoquinolones as GSK-3 inhibitors” (Kyorin Pharmaceutical Co., Ltd., priority 2006, dated 2011) are MIC and IC50 values, retold here.

Converted amounts (≈) assume the structure as drawn.

T1 sequence (P49841 whole entry): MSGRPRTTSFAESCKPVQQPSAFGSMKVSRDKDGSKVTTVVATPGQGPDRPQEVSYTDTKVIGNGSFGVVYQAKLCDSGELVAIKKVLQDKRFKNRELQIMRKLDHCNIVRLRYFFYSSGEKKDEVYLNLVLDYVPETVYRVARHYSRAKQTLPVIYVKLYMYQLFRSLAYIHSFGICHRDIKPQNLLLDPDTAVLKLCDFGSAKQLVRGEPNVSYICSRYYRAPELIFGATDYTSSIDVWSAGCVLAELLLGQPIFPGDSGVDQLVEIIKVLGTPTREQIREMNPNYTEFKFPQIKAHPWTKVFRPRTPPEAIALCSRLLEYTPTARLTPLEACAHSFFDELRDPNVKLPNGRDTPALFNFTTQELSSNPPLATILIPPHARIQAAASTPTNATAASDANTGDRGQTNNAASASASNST

For one assay, the system named is E. coli, ATCC8739. As to the kind of experiment: Antibacterial activity (MIC), E. coli. It counts as cell-based. The following applies: Escherichia coli, ATCC8739, Table 1; E. coli ATCC8739; read-out: Antibacterial MIC (μM) E.Coli. The procedure, abridged:
(§1)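 MIC, the lowest compound concentration inhibiting bacterial growth in culture medium, determined by dilution method per CLSI M7-A4 guidance; reported in μM.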
`Nc1c(F)c(NCCNc2cccc3ccccc23)c(F)c2c1c(=O)c(C(=O)O)cn2C1CC1` [compound 43]: the MIC (commonly the lowest concentration that inhibits growth of the organism) lay within 0.5 to 10 µM (≈ 0.232 to 4.64 µg/mL).
The same measure, in the same setting: to `CC1COc2c(NCCCc3ccccc3)c(F)c(N)c3c(=O)c(C(=O)O)cn1c23` (stereo not drawn) [compound 81] belongs 10 to 50 µM (≈ 4.11 to 20.6 µg/mL); to `Nc1c(F)c(NCCCn2ccnc2)c(F)c2c1c(=O)c(C(=O)O)cn2C1CC1` [compound 23], 0.5 to 10 µM (≈ 0.202 to 4.03 µg/mL); to `Nc1c(F)c(NCCc2c[nH]c3ccccc23)c(F)c2c1c(=O)ccn2C1CC1` [compound 28], > 50 µM.
Still for that read-out and setting: to `Nc1c(F)c(NCCc2ccc(O)cc2)c(F)c2c1c(=O)c(C(=O)O)cn2C1CC1` [compound 16] belongs 0.5 to 10 µM (≈ 0.208 to 4.15 µg/mL); to `Nc1c(F)c(NCCc2ccccc2)c(F)c2c1c(=O)c(C(=O)O)cn2C1CC1` [compound 1], 0.5 to 10 µM (≈ 0.2 to 3.99 µg/mL).
Same read-out and setting: to `Nc1c(F)c(NCCCc2ccccc2)c(F)c2c1c(=O)ccn2CCc1ccccc1` [compound 58] belongs 10 to 50 µM (≈ 4.34 to 21.7 µg/mL).
`Nc1c(F)c(NCCCCc2ccccc2)c(F)c2c1c(=O)c(C(=O)O)cn2C1CC1` [compound 20]: the MIC was in the range of 10 to 50 µM (≈ 4.27 to 21.4 µg/mL).
Regarding `Nc1c(F)c(NCCNc2cccc3ccccc23)c(F)c2c1c(=O)ccn2CCc1ccccc1` [compound 64], the minimum inhibitory concentration (MIC) is 10 to 50 µM (≈ 4.85 to 24.2 µg/mL).
The same measure, in the same setting: to `Nc1c(F)c(NCCc2ccncc2)c(F)c2c1c(=O)ccn2C1CC1` [compound 11] belongs > 50 µM; to `Nc1c(F)c(NCCCc2ccccc2)c(F)c2c1c(=O)c(C(=O)O)cn2C1CC1` [compound 6], 10 to 50 µM (≈ 4.13 to 20.7 µg/mL).

Still in this assay, the particulars now being: Escherichia coli, ATCC8739, Table 2; E. coli ATCC8739; read-out: Antimicrobial MIC [μM] E. Coli.
In the case of `CC1COc2c(NCCCn3cnc4ccccc43)c(F)c(N)c3c(=O)c(C(=O)O)cn1c23` (stereo not drawn) [compound 6], the MIC fell in the range of 10 to 50 µM (≈ 4.51 to 22.6 µg/mL).
The same measure, in the same setting: to `CC1COc2c(NCCNc3cccc(C(F)(F)F)n3)c(F)c(N)c3c(=O)c(C(=O)O)cn1c23` (stereo not drawn) [compound 12] belongs 10 to 50 µM (≈ 4.81 to 24.1 µg/mL); to `CC1(C)COc2c(NCCCn3cnc4ccccc43)c(F)c(N)c3c(=O)c(C(=O)O)cn1c23` [compound 37], 0.5 to 10 µM (≈ 0.233 to 4.65 µg/mL).
Turning to `CC(C)[C@@H]1COc2c(NCCCn3ccnc3)c(F)c(N)c3c(=O)c(C(=O)O)cn1c23` [compound 63], the MIC is > 50 µM.
Still for that read-out and setting: to `CC(C)[C@@H]1COc2c(NCCCn3cnc4ccccc43)c(F)c(N)c3c(=O)c(C(=O)O)cn1c23` [compound 65] belongs 0.5 to 10 µM (≈ 0.24 to 4.8 µg/mL); to `CC1(C)Cn2cc(C(=O)O)c(=O)c3c(N)c(F)c(NCCCc4ccccc4)c(c32)O1` [compound 59], 10 to 50 µM (≈ 4.25 to 21.3 µg/mL).

In another assay the test system is S. aureus Smith. As to the kind of experiment: Antibacterial activity (MIC), S. aureus. Conditions: Staphylococcus aureus, Table 1; read-out: Antibacterial MIC (μM) S. aureus Smith. The assay is classed as cell-based. Put shortly:
as §1
On to `Nc1c(F)c(NCCNc2cccc3ccccc23)c(F)c2c1c(=O)c(C(=O)O)cn2C1CC1` [compound 43], for which the MIC fell in the range of 0.5 to 10 µM (≈ 0.232 to 4.64 µg/mL).
Still for that read-out and setting: to `CC1COc2c(NCCCc3ccccc3)c(F)c(N)c3c(=O)c(C(=O)O)cn1c23` (stereo not drawn) [compound 81] belongs 0.5 to 10 µM (≈ 0.206 to 4.11 µg/mL); to `Nc1c(F)c(NCCCn2ccnc2)c(F)c2c1c(=O)c(C(=O)O)cn2C1CC1` [compound 23], 0.5 to 10 µM (≈ 0.202 to 4.03 µg/mL).
On the same count and under the same terms, to `Nc1c(F)c(NCCc2c[nH]c3ccccc23)c(F)c2c1c(=O)ccn2C1CC1` [compound 28] belongs > 50 µM; to `Nc1c(F)c(NCCc2ccc(O)cc2)c(F)c2c1c(=O)c(C(=O)O)cn2C1CC1` [compound 16], < 0.5 µM; to `Nc1c(F)c(NCCc2ccccc2)c(F)c2c1c(=O)c(C(=O)O)cn2C1CC1` [compound 1], < 0.5 µM.
On the same count and under the same terms, to `Nc1c(F)c(NCCCc2ccccc2)c(F)c2c1c(=O)ccn2CCc1ccccc1` [compound 58] belongs 10 to 50 µM (≈ 4.34 to 21.7 µg/mL); to `Nc1c(F)c(NCCCCc2ccccc2)c(F)c2c1c(=O)c(C(=O)O)cn2C1CC1` [compound 20], 0.5 to 10 µM (≈ 0.214 to 4.27 µg/mL).
As for `Nc1c(F)c(NCCNc2cccc3ccccc23)c(F)c2c1c(=O)ccn2CCc1ccccc1` [compound 64], the MIC lay within 10 to 50 µM (≈ 4.85 to 24.2 µg/mL).
Still for that read-out and setting: to `Nc1c(F)c(NCCc2ccncc2)c(F)c2c1c(=O)ccn2C1CC1` [compound 11] belongs > 50 µM; to `Nc1c(F)c(NCCCc2ccccc2)c(F)c2c1c(=O)c(C(=O)O)cn2C1CC1` [compound 6], 0.5 to 10 µM (≈ 0.207 to 4.13 µg/mL).

Staying with this assay, now noted: Staphylococcus aureus, Table 2; S. aureus Smith; read-out: Antimicrobial MIC [μM] S. aureus.
Turning to `CC1COc2c(NCCCn3cnc4ccccc43)c(F)c(N)c3c(=O)c(C(=O)O)cn1c23` (stereo not drawn) [compound 6], the MIC was 0.5 to 10 µM (≈ 0.226 to 4.51 µg/mL).
The same measure, in the same setting: to `CC1COc2c(NCCNc3cccc(C(F)(F)F)n3)c(F)c(N)c3c(=O)c(C(=O)O)cn1c23` (stereo not drawn) [compound 12] belongs 0.5 to 10 µM (≈ 0.241 to 4.81 µg/mL); to `CC1(C)COc2c(NCCCn3cnc4ccccc43)c(F)c(N)c3c(=O)c(C(=O)O)cn1c23` [compound 37], 0.5 to 10 µM (≈ 0.233 to 4.65 µg/mL).
On the same count and under the same terms, to `CC(C)[C@@H]1COc2c(NCCCn3ccnc3)c(F)c(N)c3c(=O)c(C(=O)O)cn1c23` [compound 63] belongs 10 to 50 µM (≈ 4.29 to 21.5 µg/mL); to `CC(C)[C@@H]1COc2c(NCCCn3cnc4ccccc43)c(F)c(N)c3c(=O)c(C(=O)O)cn1c23` [compound 65], 0.5 to 10 µM (≈ 0.24 to 4.8 µg/mL); to `CC1(C)Cn2cc(C(=O)O)c(=O)c3c(N)c(F)c(NCCCc4ccccc4)c(c32)O1` [compound 59], 10 to 50 µM (≈ 4.25 to 21.3 µg/mL).

The next assay has as its target T1, recombinant full-length human GSK3β (Homo sapiens, UniProt P49841).
T1 construct: recombinant full-length human GSK3β (Upstate); purchased Upstate
Briefly: Luciferase-coupled cell-free GSK3β kinase assay. The assay is classed as biochemical. The following applies: Table 1. The procedure, abridged:
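GSK3β, 10-25 ng, was incubated with compound for 1 h at 30° C in MOPS pH 7.0 buffer containing 62.5 μM phospho-glycogen synthase peptide-2 and 5 μM ATP. Remaining ATP was read by KinaseGlo luminescence, and IC50 was fitted from % inhibition relative to maximal inhibition.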
Consider `Nc1c(F)c(NCCNc2cccc3ccccc23)c(F)c2c1c(=O)c(C(=O)O)cn2C1CC1` [compound 43], for which the IC50 (in general, the concentration that gives 50% inhibition) is < 100 nM.
On the same count and under the same terms, to `CC1COc2c(NCCCc3ccccc3)c(F)c(N)c3c(=O)c(C(=O)O)cn1c23` (stereo not drawn) [compound 81] belongs < 100 nM; to `Nc1c(F)c(NCCCn2ccnc2)c(F)c2c1c(=O)c(C(=O)O)cn2C1CC1` [compound 23], < 100 nM; to `Nc1c(F)c(NCCc2c[nH]c3ccccc23)c(F)c2c1c(=O)ccn2C1CC1` [compound 28], 100 to 500 nM.
Same read-out and setting: to `Nc1c(F)c(NCCc2ccc(O)cc2)c(F)c2c1c(=O)c(C(=O)O)cn2C1CC1` [compound 16] belongs 500 to 1000 nM.
On the same count and under the same terms, to `Nc1c(F)c(NCCc2ccccc2)c(F)c2c1c(=O)c(C(=O)O)cn2C1CC1` [compound 1] belongs 100 to 500 nM; to `Nc1c(F)c(NCCCc2ccccc2)c(F)c2c1c(=O)ccn2CCc1ccccc1` [compound 58], 100 to 500 nM.
On to `Nc1c(F)c(NCCCCc2ccccc2)c(F)c2c1c(=O)c(C(=O)O)cn2C1CC1` [compound 20], for which the IC50 was 100 to 500 nM.
Still for that read-out and setting: to `Nc1c(F)c(NCCNc2cccc3ccccc23)c(F)c2c1c(=O)ccn2CCc1ccccc1` [compound 64] belongs 100 to 500 nM; to `Nc1c(F)c(NCCc2ccncc2)c(F)c2c1c(=O)ccn2C1CC1` [compound 11], 100 to 500 nM.
Still for that read-out and setting: to `Nc1c(F)c(NCCCc2ccccc2)c(F)c2c1c(=O)c(C(=O)O)cn2C1CC1` [compound 6] belongs < 100 nM.

The assay is the same for the next values; noted with them: Table 2.
Take `CC1COc2c(NCCCn3cnc4ccccc43)c(F)c(N)c3c(=O)c(C(=O)O)cn1c23` (stereo not drawn) [compound 6]: the IC50 was < 100 nM.
The same measure, in the same setting: to `CC1COc2c(NCCNc3cccc(C(F)(F)F)n3)c(F)c(N)c3c(=O)c(C(=O)O)cn1c23` (stereo not drawn) [compound 12] belongs < 100 nM; to `CC1(C)COc2c(NCCCn3cnc4ccccc43)c(F)c(N)c3c(=O)c(C(=O)O)cn1c23` [compound 37], < 100 nM; to `CC(C)[C@@H]1COc2c(NCCCn3ccnc3)c(F)c(N)c3c(=O)c(C(=O)O)cn1c23` [compound 63], < 100 nM.
The same measure, in the same setting: to `CC(C)[C@@H]1COc2c(NCCCn3cnc4ccccc43)c(F)c(N)c3c(=O)c(C(=O)O)cn1c23` [compound 65] belongs < 100 nM; to `CC1(C)Cn2cc(C(=O)O)c(=O)c3c(N)c(F)c(NCCCc4ccccc4)c(c32)O1` [compound 59], 100 to 500 nM.
